In the supplement of paper PMC11451515:

System: SEM cells
Experiment: cell viability relative to DMSO control; higher = less cytotoxic
Details: 48 h
Outline: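 Three leukemia lines were tested: NOMO1 and SEM at 500 cells/well and P12-Ichikawa at 1000 cells/well. Each was adapted for at least four passages in each medium and seeded in 5 μl in 1536-well plates, and library compounds in DMSO were pin-dosed from 47 μM to 0.79 nM in 11 threefold steps. After 48 h at 37°C, CellTiter-Glo One luminescence was read. Viability is a percentage relative to DMSO wells on each plate, with cell-free wells as background.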

[1] = HPLM + 10% dialyzed FBS, 0.000781 µM
[2] = HPLM + 10% dialyzed FBS, 0.00234 µM
[3] = HPLM + 10% dialyzed FBS, 0.00702 µM
[4] = HPLM + 10% dialyzed FBS, 0.0211 µM
[5] = HPLM + 10% dialyzed FBS, 0.0632 µM
[6] = HPLM + 10% dialyzed FBS, 0.19 µM
[7] = HPLM + 10% dialyzed FBS, 0.569 µM
[8] = HPLM + 10% dialyzed FBS, 1.71 µM
[9] = HPLM + 10% dialyzed FBS, 5.12 µM
[10] = HPLM + 10% dialyzed FBS, 15.4 µM
[11] = HPLM + 10% dialyzed FBS, 46.1 µM
[12] = RPMI 5 mM glucose + 10% FBS, 0.000781 µM
[13] = RPMI 5 mM glucose + 10% FBS, 0.00234 µM
[14] = RPMI 5 mM glucose + 10% FBS, 0.00702 µM
[15] = RPMI 5 mM glucose + 10% FBS, 0.0211 µM
[16] = RPMI 5 mM glucose + 10% FBS, 0.0632 µM
[17] = RPMI 5 mM glucose + 10% FBS, 0.19 µM
[18] = RPMI 5 mM glucose + 10% FBS, 0.569 µM
[19] = RPMI 5 mM glucose + 10% FBS, 1.71 µM
[20] = RPMI 5 mM glucose + 10% FBS, 5.12 µM
[21] = RPMI 5 mM glucose + 10% FBS, 15.4 µM
[22] = RPMI 5 mM glucose + 10% FBS, 46.1 µM
[23] = RPMI 5 mM glucose + 10% dialyzed FBS, 0.000781 µM
[24] = RPMI 5 mM glucose + 10% dialyzed FBS, 0.00234 µM
[25] = RPMI 5 mM glucose + 10% dialyzed FBS, 0.00702 µM
[26] = RPMI 5 mM glucose + 10% dialyzed FBS, 0.0211 µM
[27] = RPMI 5 mM glucose + 10% dialyzed FBS, 0.0632 µM
[28] = RPMI 5 mM glucose + 10% dialyzed FBS, 0.19 µM
[29] = RPMI 5 mM glucose + 10% dialyzed FBS, 0.569 µM
[30] = RPMI 5 mM glucose + 10% dialyzed FBS, 1.71 µM
[31] = RPMI 5 mM glucose + 10% dialyzed FBS, 5.12 µM
[32] = RPMI 5 mM glucose + 10% dialyzed FBS, 15.4 µM
[33] = RPMI 5 mM glucose + 10% dialyzed FBS, 46.1 µM

Compound `CCOC(=O)c1ccc(OC(=O)CCCCCNC(=N)N)cc1` has a cell viability [1] of 111%, a cell viability [2] of 91.3% and a cell viability [3] of 117%. For the same compound, the cell viability [4] was 120%, the cell viability [5] was 123% and the cell viability [6] was 131%. The cell viability [7] was 132%, the cell viability [8] was 127% and the cell viability [9] was 120%. The cell viability [10] was 57.9%, the cell viability [11] was 39.8% and the cell viability [12] was 116%. For the same compound, the cell viability [13] was 108%, the cell viability [14] was 134% and the cell viability [15] was 109%. For the same compound, the cell viability [16] was 130%, the cell viability [17] was 140% and the cell viability [18] was 141%. For the same compound, the cell viability [19] was 105%, the cell viability [20] was 45.9% and the cell viability [21] was 31.8%. For the same compound, the cell viability [22] was 27.2%, the cell viability [23] was 99.1% and the cell viability [24] was 86.9%. For the same compound, the cell viability [25] was 142%, the cell viability [26] was 132% and the cell viability [27] was 109%. For the same compound, the cell viability [28] was 117%, the cell viability [29] was 123% and the cell viability [30] was 125%. The cell viability [31] was 95.7%, the cell viability [32] was 37.8% and the cell viability [33] was 26.4%.

With `OC(c1cc(C(F)(F)F)nc2c(C(F)(F)F)cccc12)C1CCCCN1` (stereo not drawn) the cell viability [1] was 103%, the cell viability [2] was 115% and the cell viability [3] was 109%. For the same compound, the cell viability [4] was 116%, the cell viability [5] was 117% and the cell viability [6] was 139%. The cell viability [7] was 91.8%, the cell viability [8] was 54.7% and the cell viability [9] was 126%. The cell viability [10] was 132%, the cell viability [11] was 7.71% and the cell viability [12] was 117%. The cell viability [13] was 118%, the cell viability [14] was 131% and the cell viability [15] was 149%. The cell viability [16] was 133%, the cell viability [17] was 138% and the cell viability [18] was 93.9%. The cell viability [19] was 63.4%, the cell viability [20] was 132% and the cell viability [21] was 114%. The cell viability [22] was 9.68%, the cell viability [23] was 117% and the cell viability [24] was 130%. It also gave a cell viability [25] of 122%, a cell viability [26] of 136% and a cell viability [27] of 135%. It also gave a cell viability [28] of 129%, a cell viability [29] of 81.2% and a cell viability [30] of 47.8%. It also gave a cell viability [31] of 137%, a cell viability [32] of 130% and a cell viability [33] of 10.3%.

For `CCN(CC)CCCCNc1ncc2cc(-c3cc(OC)cc(OC)c3)c(NC(=O)NC(C)(C)C)nc2n1`, the cell viability [1] was 89.9%, the cell viability [2] was 104% and the cell viability [3] was 119%. The cell viability [4] was 114%, the cell viability [5] was 86.2% and the cell viability [6] was 98.6%. The cell viability [7] was 105%, the cell viability [8] was 84% and the cell viability [9] was 70.3%. It also gave a cell viability [10] of 46.2%, a cell viability [11] of 9.92% and a cell viability [12] of 118%. For the same compound, the cell viability [13] was 113%, the cell viability [14] was 107% and the cell viability [15] was 109%. It also gave a cell viability [16] of 100%, a cell viability [17] of 90.7% and a cell viability [18] of 92.1%. The cell viability [19] was 78.8%, the cell viability [20] was 87% and the cell viability [21] was 53.6%. The cell viability [22] was 17%, the cell viability [23] was 112% and the cell viability [24] was 105%. The cell viability [25] was 113%, the cell viability [26] was 106% and the cell viability [27] was 97.7%. For the same compound, the cell viability [28] was 108%, the cell viability [29] was 95.4% and the cell viability [30] was 81%. It also gave a cell viability [31] of 76.6%, a cell viability [32] of 44.9% and a cell viability [33] of 14.4%.

In the case of `C[C@H]1COC2=C3N1\C=C(C(O)=O)/C(=O)C3=CC(=C2N4CCN(C)CC4)F`, the cell viability [1] was 102%, the cell viability [2] was 117% and the cell viability [3] was 117%. For the same compound, the cell viability [4] was 108%, the cell viability [5] was 106% and the cell viability [6] was 110%. It also gave a cell viability [7] of 92.9%, a cell viability [8] of 68.7% and a cell viability [9] of 68.2%. It also gave a cell viability [10] of 65.4%, a cell viability [11] of 52.7% and a cell viability [12] of 105%. The cell viability [13] was 115%, the cell viability [14] was 102% and the cell viability [15] was 115%. The cell viability [16] was 90.6%, the cell viability [17] was 81.4% and the cell viability [18] was 94.7%. For the same compound, the cell viability [19] was 73.4%, the cell viability [20] was 63.6% and the cell viability [21] was 58.6%. The cell viability [22] was 31.9%, the cell viability [23] was 90% and the cell viability [24] was 109%. The cell viability [25] was 112%, the cell viability [26] was 99.1% and the cell viability [27] was 90.2%. The cell viability [28] was 96.4%, the cell viability [29] was 88.7% and the cell viability [30] was 64.1%. For the same compound, the cell viability [31] was 76.9%, the cell viability [32] was 70.4% and the cell viability [33] was 69.4%.

`COc1cc(OC2CCN(C)CC2)ccc1Nc1ncc2c(n1)n(C1CCCC1)c(=O)n2C` showed a cell viability [1] of 63.8%, a cell viability [2] of 87.5% and a cell viability [3] of 78.2%. It also gave a cell viability [4] of 69.4%, a cell viability [5] of 77.3% and a cell viability [6] of 99%. The cell viability [7] was 97.3%, the cell viability [8] was 64.7% and the cell viability [9] was 59%. The cell viability [10] was 25.6%, the cell viability [11] was 2.44% and the cell viability [12] was 87.4%. It also gave a cell viability [13] of 80.4%, a cell viability [14] of 79.3% and a cell viability [15] of 81.1%. The cell viability [16] was 99%, the cell viability [17] was 90.1% and the cell viability [18] was 83.2%. For the same compound, the cell viability [19] was 67.4%, the cell viability [20] was 76.1% and the cell viability [21] was 20.7%. The cell viability [22] was 2.73%, the cell viability [23] was 74.2% and the cell viability [24] was 88.5%. For the same compound, the cell viability [25] was 71.9%, the cell viability [26] was 75.4% and the cell viability [27] was 78.3%. For the same compound, the cell viability [28] was 96.1%, the cell viability [29] was 84.4% and the cell viability [30] was 55.4%. For the same compound, the cell viability [31] was 67.7%, the cell viability [32] was 26.6% and the cell viability [33] was 2.25%.

`COc1ccc([S+](=O)([O-])N(C(C)=O)c2ccccc2/C=C/c2cc[n+]([O-])cc2)cc1` showed a cell viability [1] of 124%, a cell viability [2] of 122% and a cell viability [3] of 133%. It also gave a cell viability [4] of 141%, a cell viability [5] of 125% and a cell viability [6] of 125%. The cell viability [7] was 124%, the cell viability [8] was 55.4% and the cell viability [9] was 26.1%. The cell viability [10] was 26.5%, the cell viability [11] was 23% and the cell viability [12] was 122%. For the same compound, the cell viability [13] was 131%, the cell viability [14] was 115% and the cell viability [15] was 126%. The cell viability [16] was 97.1%, the cell viability [17] was 103% and the cell viability [18] was 111%. The cell viability [19] was 39.1%, the cell viability [20] was 20.3% and the cell viability [21] was 18.4%. For the same compound, the cell viability [22] was 13.4%.

`c1ccc2[nH]c(-c3cscn3)nc2c1` showed a cell viability [1] of 93.6%, a cell viability [2] of 120% and a cell viability [3] of 111%. The cell viability [4] was 107%, the cell viability [5] was 115% and the cell viability [6] was 105%. For the same compound, the cell viability [7] was 109%, the cell viability [8] was 69% and the cell viability [9] was 111%. For the same compound, the cell viability [10] was 42.7%, the cell viability [11] was 116% and the cell viability [12] was 98.5%. The cell viability [13] was 132%, the cell viability [14] was 121% and the cell viability [15] was 85.9%. It also gave a cell viability [16] of 112%, a cell viability [17] of 108% and a cell viability [18] of 126%. The cell viability [19] was 71.3%, the cell viability [20] was 103% and the cell viability [21] was 23.7%. It also gave a cell viability [22] of 71.7%, a cell viability [23] of 112% and a cell viability [24] of 127%. For the same compound, the cell viability [25] was 121%, the cell viability [26] was 94.4% and the cell viability [27] was 129%. It also gave a cell viability [28] of 132%, a cell viability [29] of 139% and a cell viability [30] of 80.6%. For the same compound, the cell viability [31] was 124%, the cell viability [32] was 33.7% and the cell viability [33] was 97.3%.

In the case of `NC\1=N\C(=O)N(\C=C1)[C@@H]2O[C@H](CO)[C@@H](O)[C@@H]2O`, the cell viability [1] was 23.7%, the cell viability [2] was 26.1% and the cell viability [3] was 17.2%. The cell viability [4] was 15.7%, the cell viability [5] was 13.3% and the cell viability [6] was 11%. The cell viability [7] was 10.9%, the cell viability [8] was 8.22% and the cell viability [9] was 7.91%. The cell viability [10] was 7.2%, the cell viability [11] was 3.82% and the cell viability [12] was 37.4%. For the same compound, the cell viability [13] was 37.7%, the cell viability [14] was 23.5% and the cell viability [15] was 21.1%. The cell viability [16] was 11.4%, the cell viability [17] was 12.1% and the cell viability [18] was 10.4%. It also gave a cell viability [19] of 8.65%, a cell viability [20] of 7.25% and a cell viability [21] of 6.17%. The cell viability [22] was 1.99%, the cell viability [23] was 16.3% and the cell viability [24] was 15.2%. The cell viability [25] was 14.2%, the cell viability [26] was 8.59% and the cell viability [27] was 7.4%. It also gave a cell viability [28] of 7.91%, a cell viability [29] of 6.93% and a cell viability [30] of 4.74%. For the same compound, the cell viability [31] was 3.6%, the cell viability [32] was 3.65% and the cell viability [33] was 1.52%.
